In the assay the target is T1, human RXFP1 (Homo sapiens, UniProt Q9HBX9).
T1 construct: expressed in transfected cells
T1 sequence (Q9HBX9 1-757): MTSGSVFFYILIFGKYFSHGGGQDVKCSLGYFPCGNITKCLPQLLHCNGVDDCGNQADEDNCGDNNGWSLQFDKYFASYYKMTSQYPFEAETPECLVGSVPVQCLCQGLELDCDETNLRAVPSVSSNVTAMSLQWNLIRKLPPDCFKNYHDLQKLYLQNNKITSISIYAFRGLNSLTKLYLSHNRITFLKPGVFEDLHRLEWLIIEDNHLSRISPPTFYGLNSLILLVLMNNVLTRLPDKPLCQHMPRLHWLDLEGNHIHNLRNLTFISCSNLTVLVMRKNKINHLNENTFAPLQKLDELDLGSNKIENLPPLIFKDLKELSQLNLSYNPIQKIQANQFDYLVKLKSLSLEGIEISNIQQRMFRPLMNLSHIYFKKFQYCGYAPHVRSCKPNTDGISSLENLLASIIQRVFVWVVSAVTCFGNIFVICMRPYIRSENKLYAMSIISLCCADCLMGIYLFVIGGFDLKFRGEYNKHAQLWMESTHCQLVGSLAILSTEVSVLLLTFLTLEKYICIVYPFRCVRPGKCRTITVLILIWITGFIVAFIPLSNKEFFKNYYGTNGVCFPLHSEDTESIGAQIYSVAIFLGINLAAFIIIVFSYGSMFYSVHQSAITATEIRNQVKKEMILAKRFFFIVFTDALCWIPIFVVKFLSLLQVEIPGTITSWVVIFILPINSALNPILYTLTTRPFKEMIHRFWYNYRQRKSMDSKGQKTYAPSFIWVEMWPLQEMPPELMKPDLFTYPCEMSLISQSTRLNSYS
Kind of assay: hRXFP1 HEK293 cAMP assay (HTRF). The assay is classed as cell-based. As to conditions: HEK293 cells stably expressing human RXFP1; 30 min at rt; intracellular cAMP by HTRF. The protocol: RXFP1 Cyclic Adenosine Monophosphate (cAMP) Assays. Human embryonic kidney cells 293 (HEK293) cells and HEK293 cells stably expressing human RXFP1, were cultured in MEM medium supplemented with 10% qualified FBS, and 300 μg/ml hygromycin (Life Technologies). Cells were dissociated and suspended in assay buffer. The assay buffer was HBSS buffer (with calcium and magnesium) containing 20 mM HEPES, 0.05% BSA, and 0.5 mM IBMX. Cells (3000 cells per well, except 1500 cell per well for HEK293 cells stably expressing human RXFP1) were added to 384-well Proxiplates (Perkin-Elmer). Cells were immediately treated with test compounds in DMSO (2% final) at final concentrations in the range of 0.010 nM to 50 μM. Cells were incubated for 30 min at rt. The level of intracellular cAMP was determined using the HTRF HiRange cAMP assay reagent kit (Cisbio) according to manufacturer's instructions. Solutions of cryptate conjugated anti-cAMP and d2 fluorophore-labelled cAMP were made in a supplied lysis buffer separately. Upon completion of the reaction, the cells were lysed with equal volume of the d2-cAMP solution and anti-cAMP solution. After a 1 h rt incubation, time-resolved fluorescence intensity was measured using the Envision (Perkin-Elmer) at 400 nm excitation and dual emission at 590 nm and 665 nm. A calibration curve was constructed with an external cAMP standard at concentrations ranging from 2.7 μM to 0.1 pM by plotting the fluorescent intensity ratio from 665 nm emission to the intensity from the 590 nm emission against cAMP concentrations. The potency and activity of a compound to […] cAMP production was then determined by fitting to a 4-parametric logistic equation from a plot of cAMP level versus compound concentrations.
The examples disclosed below were tested in the human RXFP1 (hRXFP1) HEK293 cAMP assay described above and found to have agonist activity.
For the compound `COc1ccc(-c2cc(C(=O)O)ccc2F)cc1C(=O)Nc1c(C(=O)Nc2ccc(F)c(C(F)(F)F)c2)sc2ccc(C(F)(F)F)cc12` [Example 214, 6-fluoro-3′-((2-((4-fluoro-3-(trifluoromethyl)phenyl)carbamoyl)-5-(trifluoromethyl)benzo[b]thiophen-3-yl)carbamoyl)-4′-methoxy-[1,1′-biphenyl]-3-carboxylic acid], the EC50 turned out to be 2150 nM.

Consider `COc1ccc(N2CCCC(CC(=O)O)C2)cc1C(=O)Nc1c(C(=O)Nc2ccc(F)c(C(F)(F)F)c2)sc2cc(C(F)(F)F)ccc12` (single isomer, unassigned) [Example 65, 2-(1-(3-((2-((4-fluoro-3-(trifluoromethyl)phenyl)carbamoyl)-6-(trifluoromethyl)benzo[b]thiophen-3-yl)carbamoyl)-4-methoxyphenyl)piperidin-3-yl)acetic acid], for which the EC50 amounted to 662 nM. Then `COc1ccc(N2CCCC(C(C)(C)O)C2)cc1C(=O)Nc1c(C(=O)Nc2ccc(F)c(C(F)(F)F)c2)sc2cc(C(F)(F)F)ccc12` (single isomer, unassigned) [Example 108, N-(4-fluoro-3-(trifluoromethyl)phenyl)-3-(5-(3-(2-hydroxypropan-2-yl)piperidin-1-yl)-2-methoxy-benzamido)-6-(trifluoromethyl) benzo[b] thiophene-2-carboxamide], with 1430 nM; and `COc1ccc(-c2ccc(N3CCNCC3)nc2)cc1C(=O)Nc1c(C(=O)Nc2ccc(F)c(C(F)(F)F)c2)sc2cc(C(F)(F)F)ccc12` [Example 118, N-(4-fluoro-3-(trifluoromethyl)phenyl)-3-(2-methoxy-5-(6-(piperazin-1-yl)pyridin-3-yl)benzamido)-6-(trifluoromethyl) benzo[b] thiophene-2-carboxamide], with 255 nM. Turning to `COc1ccc(-c2cc(C(NC(=O)C3CCOCC3)C(F)(F)F)ccc2F)cc1C(=O)Nc1c(C(=O)Nc2ccc(F)c(C(F)(F)F)c2)sc2cc(C(F)(F)F)ccc12` (single isomer, unassigned) [Example 20, N-(2,2,2-trifluoro-1-(6-fluoro-3′-((2-((4-fluoro-3-(trifluoromethyl)phenyl)carbamoyl)-6-(trifluoromethyl)benzo[b]thiophen-3-yl)carbamoyl)-4′-methoxy-[1,1′-biphenyl]-3-yl)ethyl)tetrahydro-2H-pyran-4-carboxamide], it took 954 nM to reach a half-maximal effect (EC50). Under `COc1ccc(C2=NOC3(CCN(C(=O)C(C)(C)O)C3)C2)cc1C(=O)Nc1c(C(=O)Nc2ccc(F)c(C(F)(F)F)c2)sc2cc(C(F)(F)F)ccc12` (stereo not shown) [Example 279, N-[4-fluoro-3-(trifluoromethyl)phenyl]-3-{5-[7-(2-hydroxy-2-methylpropanoyl)-1-oxa-2,7-diazaspiro[4.4]non-2-en-3-yl]-2-methoxy-benzamido}-6-(trifluoromethyl)-1-benzothiophene-2-carboxamide] stands 582 nM. Then `COc1ccc(C2CCCN(C(=O)C3CCC3)C2)cc1C(=O)Nc1c(C(=O)Nc2ccc(F)c(C(F)(F)F)c2)sc2cc(C(F)(F)F)ccc12` (stereo not shown) [Example 98, 3-(5-(1-(cyclobutane-carbonyl)piperidin-3-yl)-2-methoxy-benzamido)-N-(4-fluoro-3-(trifluoromethyl)phenyl)-6-(trifluoromethyl) benzo[b] thiophene-2-carboxamide], with 186 nM. Turning to `COc1ncc(C(=O)NCC2(S(C)(=O)=O)CC2)cc1C(=O)Nc1c(C(=O)Nc2ccc(F)c(C(F)(F)F)c2)sc2cc(C(F)(F)F)ccc12` [Example 171, N3-(2-((4-fluoro-3-(trifluoromethyl)phenyl)carbamoyl)-6-(trifluoromethyl)benzo[b]thiophen-3-yl)-2-methoxy-N5-((1-(methylsulfonyl)cyclopropyl)methyl) pyridine-3,5-dicarboxamide], a half-maximal effect (EC50) was put at 9.1 nM.

Compound `COc1ccc(N2CCCC(C(=O)NCC(C)(C)O)C2)cc1C(=O)Nc1c(C(=O)Nc2ccc(F)c(C(F)(F)F)c2)sc2cc(C(F)(F)F)ccc12` (single isomer, unassigned) [Example 8, 1-(3-((2-((4-fluoro-3-(trifluoromethyl)phenyl)carbamoyl)-6-(trifluoromethyl)benzo[b]thiophen-3-yl)carbamoyl)-4-methoxyphenyl)-N-(2-hydroxy-2-methylpropyl) piperidine-3-carboxamide] showed an EC50 of 2020 nM.

The compound `COc1ccc(C2=NOC3(CCN(C(=O)C(C)(C)O)CC3)C2)cc1C(=O)Nc1c(C(=O)Nc2ccc(F)c(C(F)(F)F)c2)sc2cc(C(F)(F)F)ccc12` [Example 270, N-(4-fluoro-3-(trifluoromethyl)phenyl)-3-(5-(8-(2-hydroxy-2-methylpropanoyl)-1-oxa-2,8-diazaspiro[4.5]dec-2-en-3-yl)-2-methoxy-benzamido)-6-(trifluoromethyl) benzo[b] thiophene-2-carboxamide] yielded an EC50 of 532 nM. Under `COc1ccc(C(=O)NCC(C)(C)O)cc1C(=O)Nc1c(C(=O)Nc2ccc(F)c(C(F)(F)F)c2)sc2cc(C(F)(F)F)ccc12` [Example 237, N3-(2-((4-fluoro-3-(trifluoromethyl)phenyl)carbamoyl)-6-(trifluoromethyl)benzo[b]thiophen-3-yl)-N1-(2-hydroxy-2-methylpropyl)-4-methoxy-isophthalamide] stands 3770 nM; under `COc1ccc(C2=NOC3CC(NC(=O)CO)CC23)cc1C(=O)Nc1c(C(=O)Nc2ccc(F)c(C(F)(F)F)c2)sc2cc(C(F)(F)F)ccc12` (single isomer, unassigned) [Example 263, N-[4-fluoro-3-(trifluoromethyl)phenyl]-3-{5-[5-(2-hydroxyacetamido)-3aH,4H,5H,6H, 6aH-cyclopenta[d] [1,2]oxazol-3-yl]-2-methoxy-benzamido}-6-(trifluoromethyl)-1-benzothiophene-2-carboxamide], 122 nM.

In turn, `COc1ccc(C2CCCC(O)C2)cc1C(=O)Nc1c(C(=O)Nc2ccc(F)c(C(F)(F)F)c2)sc2cc(C(F)(F)F)ccc12` (single isomer, unassigned) [Example 33, N-(4-fluoro-3-(trifluoromethyl)phenyl)-3-(5-(3-hydroxycyclohexyl)-2-methoxybenzamido)-6-(trifluoromethyl)benzo[b]thiophene-2-carboxamide] showed an EC50 of 216 nM. For the compound `COc1ccc(-c2cccc(S(=O)(=O)N(C)C)c2)cc1C(=O)Nc1c(C(=O)Nc2ccc(F)c(C(F)(F)F)c2)sc2cc(C(F)(F)F)ccc12` [Example 119, 3-(3′-(N,N-dimethyl-sulfamoyl)-4-methoxy-[1,1′-biphenyl]-3-carboxamido)-N-(4-fluoro-3-(trifluoromethyl)phenyl)-6-(trifluoromethyl) benzo[b] thiophene-2-carboxamide], the EC50 was found to be 282 nM. Then `COc1ccc(C2CCN(CCS(C)(=O)=O)C2)cc1C(=O)Nc1c(C(=O)Nc2ccc(F)c(C(F)(F)F)c2)sc2cc(C(F)(F)F)ccc12` (single isomer, unassigned) [Example 153, N-(4-fluoro-3-(trifluoromethyl)phenyl)-3-(2-methoxy-5-(1-(2-(methylsulfonyl)ethyl)pyrrolidin-3-yl)benzamido)-6-(trifluoromethyl) benzo[b] thiophene-2-carboxamide], with 314 nM; and `COc1ccc(C(=O)NC(C)(C)CO)cc1C(=O)Nc1c(C(=O)Nc2ccc(F)c(C(F)(F)F)c2)sc2cc(C(F)(F)F)ccc12` [Example 190, N3-(2-((4-fluoro-3-(trifluoromethyl)phenyl)carbamoyl)-6-(trifluoromethyl)benzo[b]thiophen-3-yl)-N1-(1-hydroxy-2-methylpropan-2-yl)-4-methoxy-isophthalamide], with 689 nM.

Source of the values: patent US20260265233A1, “BENZOTHIOPHENE DERIVATIVES AS RXFP1 AGONISTS” (BRISTOL-MYERS SQUIBB COMPANY, priority 2021, published 2026).
